According to ChEMBL document CHEMBL3885881, “DrugMatrix”:

Species: Rattus norvegicus
Test: DrugMatrix - Regimen: Daily Repeat
Assay type: toxicity, organism-based, Sprague-Dawley
Parameters: regimen Daily Repeat, gender Male, age 6-8 weeks
Conditions: in vivo, po, route oral GAVAGE, vehicle 100 % WATER; for ABSOLUTE BASOPHIL / ABSOLUTE EOSINOPHIL / ABSOLUTE LYMPHOCYTE / ABSOLUTE MONOCYTE / ABSOLUTE SEGMENTED NEUTROPHIL / BASOPHIL / EOSINOPHIL / ERYTHROCYTE COUNT / HEMATOCRIT / HEMOGLOBIN / LEUKOCYTE COUNT / LYMPHOCYTE / MEAN CORPUSCULAR HEMOGLOBIN / MEAN CORPUSCULAR HEMOGLOBIN CONCENTRATION / MEAN CORPUSCULAR VOLUME / MONOCYTE / NEUTROPHIL / NUCLEATED RED BLOOD CELLS / PLATELET COUNT: tissue Blood; for ALANINE AMINOTRANSFERASE / ALBUMIN / ALKALINE PHOSPHATASE / ASPARTATE AMINOTRANSFERASE / BLOOD UREA NITROGEN / CARBON DIOXIDE / CHLORIDE / CHOLESTEROL / CREATINE PHOSPHOKINASE / CREATININE / GLUCOSE / LACTATE DEHYDROGENASE / LIPASE / PHOSPHORUS / POTASSIUM / SODIUM / TOTAL BILIRUBIN / TOTAL PROTEIN / URIC ACID: tissue Plasma
[1] = 0 mg/kg, 72 h, dose level Control, time 3 day
[2] = 0 mg/kg, 120 h, dose level Control, time 5 day
[3] = 3 mg/kg, 72 h, dose level Low, time 3 day

Question: With `CN(C)CC[C@@H](c1ccc(Cl)cc1)c1ccccn1` [DEXCHLORPHENIRAMINE] as the compound, how does the “ABSOLUTE BASOPHIL” value [1] read?
Answer: 0 CELLS/uL

Question: What about the “ABSOLUTE EOSINOPHIL” value [1] of the same compound?
Answer: 58.83 CELLS/uL

Question: And the “ABSOLUTE LYMPHOCYTE” value [1]?
Answer: 11823.5 CELLS/uL

Question: And the “ABSOLUTE MONOCYTE” value [1]?
Answer: 169 CELLS/uL

Question: What about the “ABSOLUTE SEGMENTED NEUTROPHIL” value [1] of the same compound?
Answer: 815.33 CELLS/uL

Question: And the BASOPHIL [1]?
Answer: 0%

Question: What about the EOSINOPHIL [1] of the same compound?
Answer: 0.5%

Question: What about the “ERYTHROCYTE COUNT” value [1] of the same compound?
Answer: 5.52 x10E6/uL

Question: What about the HEMATOCRIT [1] of the same compound?
Answer: 35.77%

Question: And the HEMOGLOBIN [1]?
Answer: 14.28 G/DL

Question: And the “LEUKOCYTE COUNT” value [1]?
Answer: 12.87 x10E3/uL

Question: And the LYMPHOCYTE [1]?
Answer: 91.67%

Question: What about the “MEAN CORPUSCULAR HEMOGLOBIN” value [1] of the same compound?
Answer: 25.92 pg

Question: What about the “MEAN CORPUSCULAR HEMOGLOBIN CONCENTRATION” value [1] of the same compound?
Answer: 39.95 G/DL

Question: What about the “MEAN CORPUSCULAR VOLUME” value [1] of the same compound?
Answer: 64.85 fL

Question: And the MONOCYTE [1]?
Answer: 1.33%

Question: And the NEUTROPHIL [1]?
Answer: 6.5%

Question: What about the “NUCLEATED RED BLOOD CELLS” value [1] of the same compound?
Answer: 0 /100WBC

Question: And the “PLATELET COUNT” value [1]?
Answer: 1246.17 x10E3/uL

Question: What about the “ALANINE AMINOTRANSFERASE” value [1] of the same compound?
Answer: 66 u/L

Question: What about the ALBUMIN [1] of the same compound?
Answer: 4.25 G/DL

Question: And the “ALKALINE PHOSPHATASE” value [1]?
Answer: 416 u/L

Question: What about the “ASPARTATE AMINOTRANSFERASE” value [1] of the same compound?
Answer: 106.17 u/L

Question: And the “BLOOD UREA NITROGEN” value [1]?
Answer: 12.67 mg/dL

Question: And the “CARBON DIOXIDE” value [1]?
Answer: 31.83 mmol/L

Question: What about the CHLORIDE [1] of the same compound?
Answer: 102.5 MEQ/L

Question: And the CHOLESTEROL [1]?
Answer: 69 mg/dL

Question: What about the “CREATINE PHOSPHOKINASE” value [1] of the same compound?
Answer: 601.83 u/L

Question: What about the CREATININE [1] of the same compound?
Answer: 0.18 mg/dL

Question: And the GLUCOSE [1]?
Answer: 154.5 mg/dL

Question: And the “LACTATE DEHYDROGENASE” value [1]?
Answer: 301.83 u/L

Question: What about the LIPASE [1] of the same compound?
Answer: 11.17 u/L

Question: What about the PHOSPHORUS [1] of the same compound?
Answer: 12.08 mg/dL

Question: What about the POTASSIUM [1] of the same compound?
Answer: 6.12 MEQ/L

Question: And the SODIUM [1]?
Answer: 145.2 MEQ/L

Question: And the “TOTAL BILIRUBIN” value [1]?
Answer: 0.17 mg/dL

Question: What about the “TOTAL PROTEIN” value [1] of the same compound?
Answer: 6.1 G/DL

Question: What about the “URIC ACID” value [1] of the same compound?
Answer: 1.57 mg/dL

Question: What about the “ABSOLUTE BASOPHIL” value [2] of the same compound?
Answer: 0 CELLS/uL

Question: What about the “ABSOLUTE EOSINOPHIL” value [2] of the same compound?
Answer: 19.33 CELLS/uL

Question: What about the “ABSOLUTE LYMPHOCYTE” value [2] of the same compound?
Answer: 12577.83 CELLS/uL

Question: And the “ABSOLUTE MONOCYTE” value [2]?
Answer: 106.33 CELLS/uL

Question: What about the “ABSOLUTE SEGMENTED NEUTROPHIL” value [2] of the same compound?
Answer: 896.5 CELLS/uL

Question: What about the BASOPHIL [2] of the same compound?
Answer: 0%

Question: What about the EOSINOPHIL [2] of the same compound?
Answer: 0.17%

Question: And the “ERYTHROCYTE COUNT” value [2]?
Answer: 5.84 x10E6/uL

Question: And the HEMATOCRIT [2]?
Answer: 36.88%

Question: And the HEMOGLOBIN [2]?
Answer: 14.48 G/DL

Question: And the “LEUKOCYTE COUNT” value [2]?
Answer: 13.6 x10E3/uL

Question: What about the LYMPHOCYTE [2] of the same compound?
Answer: 92.17%

Question: And the “MEAN CORPUSCULAR HEMOGLOBIN” value [2]?
Answer: 24.85 pg

Question: What about the “MEAN CORPUSCULAR HEMOGLOBIN CONCENTRATION” value [2] of the same compound?
Answer: 39.3 G/DL

Question: What about the “MEAN CORPUSCULAR VOLUME” value [2] of the same compound?
Answer: 63.23 fL

Question: And the MONOCYTE [2]?
Answer: 0.83%

Question: And the NEUTROPHIL [2]?
Answer: 6.83%

Question: And the “NUCLEATED RED BLOOD CELLS” value [2]?
Answer: 0 /100WBC

Question: What about the “PLATELET COUNT” value [2] of the same compound?
Answer: 1223.5 x10E3/uL

Question: And the “ALANINE AMINOTRANSFERASE” value [2]?
Answer: 55.33 u/L

Question: And the ALBUMIN [2]?
Answer: 4.08 G/DL

Question: And the “ALKALINE PHOSPHATASE” value [2]?
Answer: 355.5 u/L

Question: What about the “ASPARTATE AMINOTRANSFERASE” value [2] of the same compound?
Answer: 87.67 u/L

Question: And the “BLOOD UREA NITROGEN” value [2]?
Answer: 15.33 mg/dL

Question: And the “CARBON DIOXIDE” value [2]?
Answer: 33.83 mmol/L

Question: What about the CHLORIDE [2] of the same compound?
Answer: 99.67 MEQ/L

Question: And the CHOLESTEROL [2]?
Answer: 72.17 mg/dL

Question: What about the “CREATINE PHOSPHOKINASE” value [2] of the same compound?
Answer: 268.33 u/L

Question: And the CREATININE [2]?
Answer: 0.15 mg/dL

Question: What about the GLUCOSE [2] of the same compound?
Answer: 152.5 mg/dL

Question: And the “LACTATE DEHYDROGENASE” value [2]?
Answer: 212.67 u/L

Question: What about the LIPASE [2] of the same compound?
Answer: 10.83 u/L

Question: What about the PHOSPHORUS [2] of the same compound?
Answer: 11.65 mg/dL

Question: What about the POTASSIUM [2] of the same compound?
Answer: 6.73 MEQ/L

Question: What about the SODIUM [2] of the same compound?
Answer: 142.43 MEQ/L

Question: What about the “TOTAL BILIRUBIN” value [2] of the same compound?
Answer: 0.23 mg/dL

Question: What about the “TOTAL PROTEIN” value [2] of the same compound?
Answer: 6.07 G/DL

Question: What about the “URIC ACID” value [2] of the same compound?
Answer: 1.7 mg/dL

Question: And the “ABSOLUTE BASOPHIL” value [3]?
Answer: 0 CELLS/uL

Question: What about the “ABSOLUTE EOSINOPHIL” value [3] of the same compound?
Answer: 76 CELLS/uL

Question: What about the “ABSOLUTE LYMPHOCYTE” value [3] of the same compound?
Answer: 10621.67 CELLS/uL

Question: What about the “ABSOLUTE MONOCYTE” value [3] of the same compound?
Answer: 75 CELLS/uL

Question: And the “ABSOLUTE SEGMENTED NEUTROPHIL” value [3]?
Answer: 960.67 CELLS/uL

Question: What about the BASOPHIL [3] of the same compound?
Answer: 0%

Question: And the EOSINOPHIL [3]?
Answer: 0.67%

Question: And the “ERYTHROCYTE COUNT” value [3]?
Answer: 5.43 x10E6/uL

Question: What about the HEMATOCRIT [3] of the same compound?
Answer: 35.8%

Question: And the HEMOGLOBIN [3]?
Answer: 14.27 G/DL

Question: And the “LEUKOCYTE COUNT” value [3]?
Answer: 11.73 x10E3/uL

Question: What about the LYMPHOCYTE [3] of the same compound?
Answer: 90.33%

Question: And the “MEAN CORPUSCULAR HEMOGLOBIN” value [3]?
Answer: 26.27 pg

Question: And the “MEAN CORPUSCULAR HEMOGLOBIN CONCENTRATION” value [3]?
Answer: 39.83 G/DL

Question: And the “MEAN CORPUSCULAR VOLUME” value [3]?
Answer: 65.9 fL

Question: What about the MONOCYTE [3] of the same compound?
Answer: 0.67%

Question: What about the NEUTROPHIL [3] of the same compound?
Answer: 8.33%

Question: And the “NUCLEATED RED BLOOD CELLS” value [3]?
Answer: 0 /100WBC

Question: What about the “PLATELET COUNT” value [3] of the same compound?
Answer: 1343.33 x10E3/uL

Question: And the “ALANINE AMINOTRANSFERASE” value [3]?
Answer: 45.67 u/L

Question: What about the ALBUMIN [3] of the same compound?
Answer: 4.17 G/DL

Question: And the “ALKALINE PHOSPHATASE” value [3]?
Answer: 363.67 u/L

Question: And the “ASPARTATE AMINOTRANSFERASE” value [3]?
Answer: 81 u/L

Question: And the “BLOOD UREA NITROGEN” value [3]?
Answer: 12.67 mg/dL

Question: What about the “CARBON DIOXIDE” value [3] of the same compound?
Answer: 31.67 mmol/L

Question: And the CHLORIDE [3]?
Answer: 102.33 MEQ/L

Question: And the CHOLESTEROL [3]?
Answer: 64 mg/dL

Question: And the “CREATINE PHOSPHOKINASE” value [3]?
Answer: 265.33 u/L

Question: And the CREATININE [3]?
Answer: 0.26 mg/dL

Question: What about the GLUCOSE [3] of the same compound?
Answer: 152.33 mg/dL

Question: What about the “LACTATE DEHYDROGENASE” value [3] of the same compound?
Answer: 198 u/L

Question: And the LIPASE [3]?
Answer: 13.33 u/L

Question: And the PHOSPHORUS [3]?
Answer: 13.23 mg/dL

Question: And the POTASSIUM [3]?
Answer: 6.5 MEQ/L

Question: What about the SODIUM [3] of the same compound?
Answer: 145.03 MEQ/L

Question: What about the “TOTAL BILIRUBIN” value [3] of the same compound?
Answer: 0.13 mg/dL

Question: What about the “TOTAL PROTEIN” value [3] of the same compound?
Answer: 5.87 G/DL

Question: And the “URIC ACID” value [3]?
Answer: 1.57 mg/dL
